One experiment addresses BRD4(1,2) (Homo sapiens (Human), UniProt O60885). In words: HTRF binding of compounds on BRD4 (D1+D2). The settings on record: read-out: IC50 against BRD4(1,2). From the text: (§1) Homogeneous time-resolved fluorescence technology (HTRF) was used to determine the binding effect of compounds on BRD4 (D1+D2) and BRDT (D1) proteins, as well as AlphaScreen method was used to detect the binding effect of compounds on BRD2 (D1+D2) and BRD3 (D1+D2) proteins.
(§2) The compounds were screened in vitro, and each compound was serially diluted to 10 concentrations. Four proteins BRD4 (D1+D2), BRDT (D1), BRD2 (D1+D2) and BRD3 (D1+D2) were chosen to determine the IC50 values of compounds (see Table 1).
(§3) 4. Compound treatment: The test compound was dissolved in dimethyl sulfoxide (DMSO), and the storage concentration was 10 mM.
(§4) 5. Steps for Homogeneous Time-Resolved Fluorescence Detection:
(§5) 1) According to the arrangement of the detection plate, all compounds were diluted in Echo plate.
(§6) The final dilution concentration of DMSO is 0.1%.
(§7) 2) The compound or DMSO was transferred to a 384-well detection plate with the Echo automatic sampler.
(§8) 3) Two-fold concentration of the mixture of protein and peptide was added to the detection plate.
(§9) 4) Two-fold concentration of mixed detection solution was added to the test plate, and shaken for 30 s.
(§10) 5) Incubating for 2 h at room temperature.
(§11) 6) Fluorescence signal was read on Envision multi-function microplate reader (excitation light wavelength being 340 nm, and emission light wavelength being 615 nm and 665 nm).
(§12) The experimental data were recorded in an Excel file, and equation (1) was used to obtain the inhibition rate. Inh%=(Max−Signal)/(Max−Min)*100 Equation (1):
(§13) The obtained data was recorded in GraphPad software, and equation (2) was used to provide the IC50 values. Y=Bottom+(Top−Bottom)/(1+10^((Log IC50−X)*Hill Slope)) Equation (2): […]
(§14) Y axis was the inhibition rate, and X axis was the compound concentration.

The next experiment deals with BRD2(1,2) (Homo sapiens (Human), UniProt P25440). In words: AlphaScreen binding of compounds on BRD2 (D1+D2). The settings on record: read-out: IC50 against BRD2(1,2).
Chain of BRD2(1,2) (P25440 65-459): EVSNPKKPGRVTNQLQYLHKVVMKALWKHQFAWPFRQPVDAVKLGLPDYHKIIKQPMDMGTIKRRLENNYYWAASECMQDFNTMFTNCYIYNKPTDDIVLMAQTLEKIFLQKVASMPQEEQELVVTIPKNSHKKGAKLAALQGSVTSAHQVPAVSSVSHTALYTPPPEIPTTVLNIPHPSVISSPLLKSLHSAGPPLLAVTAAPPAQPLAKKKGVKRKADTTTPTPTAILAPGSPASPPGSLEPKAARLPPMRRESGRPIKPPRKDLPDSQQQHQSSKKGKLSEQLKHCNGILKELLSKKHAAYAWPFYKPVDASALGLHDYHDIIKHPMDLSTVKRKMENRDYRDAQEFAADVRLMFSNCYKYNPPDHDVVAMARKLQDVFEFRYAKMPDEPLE
From the text: as §1, §2, §3
(§15) 6. AlphaScreen Detection Procedures:
(§16) 1) Preparing One-Fold Concentration of Detection Buffer
(§17) One-fold concentration of detection buffer was prepared (Improved HEPES buffer)
(§18) 2) Gradient Dilution of Compounds
(§19) Echo automatic sampler was used to transfer the compound to the detection plate for gradient dilution, so that the final concentration of dimethyl sulfoxide was 0.1%.
(§20) 3) Preparation of Protein Solution
(§21) The protein was dissolved in one-fold concentration of detection buffer.
(§22) 4) Preparation of Substrate Solution
(§23) The peptide was dissolved in one-fold concentration of detection buffer to prepare the substrate solution.
(§24) 5) 5 μL protein solution was transferred to the detection plate, and one-fold concentration of detection buffer (5 μL) was placed in the negative control wells.
(§25) 6) The plate was incubated for 15 min at room temperature.
(§26) 7) 5 μL substrate solution was added to each well to start the reaction.
(§27) 8) The plate was incubated for additional 60 min at room temperature.
(§28) 9) Preparation of acceptor solution and donor solution in one-fold concentration of assay buffer Acceptor solution (15 μL) and donor solution (15 μL) were respectively added, and then incubated at room temperature for 60 min and protected against exposure to light.
(§29) 10) The endpoint was read in EnSpire and Alpha mode.
(§30) The experimental data were recorded in an Excel file and equation (1) was used to get the inhibition rate. Inh%=(Max−Signal)/(Max−Min)*100 Equation (1):
(§31) The obtained data were input into GraphPad software, and equation (2) was used to obtain the IC50 value. Y=Bottom+(Top−Bottom)/(1+10^((Log IC50−X)*Hill Slope)) Formula (2): […]
(§32) Wherein, Y axis was the inhibition rate, and the X axis was the compound concentration.

In another experiment the target is BRDT(D1) (Homo sapiens (Human), UniProt Q58F21). In words: HTRF binding of compounds on BRDT (D1). The conditions noted are these: read-out: IC50 against BRDT(D1).
From the text: as §1, §2, §3, §4, §5, §6, §7, §8, §9, §10, §11, §12, §13, §14

In the next experiment the target is BRD3(1,2) (Homo sapiens (Human), UniProt Q15059). The experiment is described as follows: AlphaScreen binding of compounds on BRD3 (D1+D2). The settings on record: read-out: IC50 against BRD3(1,2).
Chain of BRD3(1,2) (Q15059 29-417): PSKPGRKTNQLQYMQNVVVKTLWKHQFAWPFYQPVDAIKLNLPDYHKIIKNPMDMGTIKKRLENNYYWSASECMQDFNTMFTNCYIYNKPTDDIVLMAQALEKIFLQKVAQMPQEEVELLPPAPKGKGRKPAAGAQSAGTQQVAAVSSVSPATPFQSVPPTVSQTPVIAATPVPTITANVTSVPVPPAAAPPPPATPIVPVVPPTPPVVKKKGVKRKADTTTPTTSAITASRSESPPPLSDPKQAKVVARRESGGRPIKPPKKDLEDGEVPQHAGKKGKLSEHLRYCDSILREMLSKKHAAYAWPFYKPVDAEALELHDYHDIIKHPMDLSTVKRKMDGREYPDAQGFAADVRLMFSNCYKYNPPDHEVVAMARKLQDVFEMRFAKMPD
From the text: as §1, §2, §3, §15, §16, §17, §18, §19, §20, §21, §22, §23, §24, §25, §26, §27, §28, §29, §30, §31, §32

A further experiment concerns CWR22RV1 cells. In words: Inhibition of proliferation of CWR22RV1 cells (CCK-8). Format: cell-based, human. The conditions noted are these: Homo sapiens, CWR22Rv1, 144 h, 6 days. The procedure, abridged:
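Cells seeded at 1500/well, cultured overnight, then exposed to compounds in 3-fold dilutions (9 concentrations from 10 μM top final, 0.1% DMSO) for 6 days at 37 °C. Viability read by CCK-8 absorbance at 450 nm after 2.5 h; IC50 from dose-response inhibition fit.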

Structures are written as SMILES.

With `[2H]C([2H])([2H])n1cc(-c2cc(S(C)(=O)=O)ccc2N2CCC3(CC2)CC3)c2cc[nH]c2c1=O` [Compound 56, 6-trideuteromethyl-4-(5(methylsulfonyl)-2-(6-aza-spiro[2.5]octan-6-yl)phenyl)-1H-pyrrolo[2,3-c]pyridin-7(6H)-one], the IC50 worked out at 7.1 nM at BRD4(1,2); 1.1 nM at BRD2(1,2); 21 nM at BRDT(D1); 4.3 nM at BRD3(1,2); 3 nM with CWR22RV1 cells.
On the same counts, the results for `CCS(=O)(=O)Nc1ccc(N2CCC3(CC2)CC3(F)F)c(-c2cn(C)c(=O)c3[nH]ccc23)c1` [Compound 193, N-(4-(1,1-difluoro-6-aza-spiro[2.5]octan-6-yl)-3-(6-methyl-7-oxo-6,7-dihydro-1H-pyrrolo[2,3-c]pyridin-4-yl)phenyl)ethanesulfonamide] are 14 nM, 2.7 nM, 32 nM, 5.8 nM and 4 nM.
The matching figures for `[2H]C([2H])([2H])n1cc(-c2cc(S(=O)(=O)NC)ccc2N2CCC3(CC2)CC3)c2cc[nH]c2c1=O` [Compound 202, N-methyl-3-(6-trideuteromethyl-7-oxo-6,7-dihydro-1H-pyrrolo [2,3-c]pyridin-4-yl)-4-(6-aza-spiro[2.5]octan-6-yl)benzenesulfonamide]: 5.1 nM, 1.6 nM, 16 nM, 4.5 nM and 0.5 nM.
On the same counts, the results for `[2H]C([2H])([2H])n1cc(-c2cc(S(=O)(=O)N(C)C)ccc2N2CCC3(CC2)CC3(F)F)c2cc[nH]c2c1=O` [Compound 204, 4-(1,1-difluoro-6-aza-spiro[2.5]octan-6-yl)-N,N-dimethyl-3-(6-trideuteromethyl-7-oxo-6,7-dihydro-1H-pyrrolo[2,3-c]pyridin-4-yl)benzenesulfonamide] are 10 nM, 6.5 nM, 19 nM, 7.4 nM and 0.7 nM.
`[2H]C([2H])([2H])n1cc(-c2cc(S(=O)(=O)C(C)(C)C(=O)O)ccc2N2CCC3(CC2)CC3(F)F)c2cc[nH]c2c1=O` [Compound 239, 2-((4-(1,1-difluoro-6-aza-spiro[2.5]octan-6-yl)-3-(6-trideuteromethyl-7-oxo-6,7-dihydro-1H-pyrrolo[2,3-c]pyridin-4-yl)phenyl)sulfonyl)-2-methylpropionic acid]: the IC50 at BRD4(1,2) was determined as 14 nM; on BRD2(1,2) it was 3 nM; at BRDT(D1), 18 nM; at BRD3(1,2), 5.2 nM; with CWR22RV1 cells it was 7.8 nM.
On the same counts, the results for `[2H]C([2H])([2H])n1cc(-c2cc(S(=O)(=O)N3CC[C@@H](O)C3)ccc2N2CCC3(CC2)CC3(F)F)c2cc[nH]c2c1=O` [Compound 240, (R)-4-(2-(1,1-difluoro-6-aza-spiro[2.5]octan-6-yl)-5-((3-hydroxylpyrrolidin-1-yl)sulfonyl)phenyl)-6-trideuteromethyl-1H-pyrrolo[2,3-c]pyridin-7(6H)-one] are 6.4 nM, 1.2 nM, 21 nM, 4.3 nM and 4.8 nM.
For the compound `[2H]C([2H])([2H])n1cc(-c2cc(S(=O)(=O)N3C[C@H](O)C[C@H]3C(=O)O)ccc2N2CCC3(CC2)CC3(F)F)c2cc[nH]c2c1=O` [Compound 252, (2S,4R)-1-((4-(1,1-difluoro-6-aza-spiro[2.5]octan-6-yl)-3-(6-trideuteromethyl-7-oxo-6,7-dihydro-1H-pyrrolo[2,3-c]pyridin-4-yl)phenyl)sulfonyl)-4-hydroxylpyrrolidin-2-carboxylic acid], the IC50 on BRD4(1,2) is 680 nM; at BRD2(1,2) it was 160 nM; on BRDT(D1), 830 nM; on BRD3(1,2) it was 240 nM.

The values are drawn from patent US12162878B2 (HINOVA PHARMACEUTICALS INC., priority 2018, dated 2024).
